In patent US20190134060A1, “25-HYDROXYCHOLESTEROL AND METHODS OF USE THEREOF” (priority 2016, published 2019):
Entries after “also recorded” stand apart in the source; their conditions may differ.

Key:
rat hippocampal cultures = assay: Oxygen-glucose deprivation (OGD, 2.5 hours)-induced cell death, PI/Hoechst survival; assay type: cell-based; conditions: for OGD-induced cell death exacerbated by 24S-HC, effect of NMDAR antagonist: co-treatment prior to and during OGD
Experimental: (§1) Cell culture. All animal care and experimental procedures were consistent with National Institutes of Health guidelines and were approved by the Washington University Animal Studies Committee. Studies involving animals are reported in accordance with the ARRIVE guidelines for reporting experiments involving animals (12, 13). Rat or mouse hippocampal cultures were prepared from postnatal day 1 to 3, pups of both sexes (85% female) anaesthetized with isoflurane. Hippocampal slices (500 μm thickness) were digested with 1 mg⋅mL^−1 papain in oxygenated LeibovitzL-15 medium (Life Technologies, Gaithersburg, Md., USA). Tissue was mechanically triturated in modified Eagle's medium (Life Technologies) containing 5% horse serum, 5% FCS, 17 mM D glucose, 400 μM glutamine, 50 U⋅mL^−1 penicillin and 50 μg⋅mL^−1 streptomycin. Cells were seeded in modified Eagle's medium at a density of ˜650 cells per mm^2 (onto 25 mm cover glasses coated with 5 mg⋅mL^−1 collagen or 0.1 mg⋅mL^−1 poly-D-lysine with 1 mg⋅mL^−1 laminin). Cultures were incubated at 37° C. in a humidified chamber with 5% CO2/95% air. Cytosine arabinoside (6.7 μM) was added 3-4 days after plating to inhibit glial proliferation. The following day, half of the culture medium was replaced with Neurobasal medium (Life Technologies) plus B27 supplement (Life Technologies).
(§2) Oxygen-glucose deprivation. Mass cultures (13-14 DIV) were exposed to oxygen-glucose deprivation (OGD), in which original medium containing 25 mM glucose was exchanged for fresh MEM medium […] and exposed to a sealed chamber (Billups-Rothenberg, Del Mar, Calif., USA), humidified and saturated with 95% nitrogen and 5% CO2 at 37° C., for 2.5 hours. The gas exchange followed the specifications of the chamber manufacturer (flow of 20 L⋅minute^−1 for 4 minutes to achieve 100% gas exchange). In some experiments, original medium was exchanged for fresh MEM medium containing the specified drugs immediately prior to OGD exposure. Controls were incubated in MEM medium without oxygen deprivation. Following OGD or control treatment, cells were returned to their original medium and incubated under standard culture conditions until the cell death assay (24 hours later). Hoechst 33342 (5 μM) was used to identify all nuclei and propidium iodide (PI, 3 μM) for 30 minutes to stain nuclei of cells with compromised membranes.
(§3) Data analysis. Five 10× microscope fields were quantified per condition per experiment, yielding>100 total neurons for each condition. Ratios of healthy neurons were quantified as the fraction of PI-negative neuronal nuclei to total neuronal nuclei. Automated cell counting algorithms (ImageJ software, National Institutes of Health, Bethesda, Md., USA) were used for cell counts. Toxicity experiments were treated as a dependent sample design (32) in which sibling cultures plated in identical media and exposed to OGD at the same time were compared by repeated measures statistics. Results are shown as means±SEM. Comparative statistics were performed with Student's t-test or one-way repeated measures ANOVA where indicated.

hippocampal cultures [1] = assay: NMDA-induced cell death (NMDA toxicity) in hippocampal cultures; assay type: cell-based
Experimental: If the neuroprotective effects of 25-HC are entirely through antagonism of NMDAR function and endogenous, local 24S-HC, it would be expected that 25-HC should also reduce direct NMDA-induced cell death. NMDA was exogenously applied at either 8 μM or 20 μM to induce mild or severe toxicity (FIG. 5A).
as §1, §3

NMDARs [2] = assay: Modulation of NMDAR function
NMDARs [3] = conditions: cited from earlier work
hippocampal cultures [4] = assay: More severe OGD (3 hours) with NMDAR blockade by MK-801, cell death; assay type: cell-based; conditions: for normalized survival: n=9 cultures
Experimental: As a final test, a more severe OGD insult was applied by increasing OGD exposure time from 2.5 hours to 3 hours to help emphasize any NMDAR-independent mechanisms of OGD-induced death.
as §2, §3

hippocampal cultures [5] = assay: H2O2 induced toxicity (model of oxidative damage); assay type: cell-based; conditions: H2O2 100 μM, 1 hour treatment; in the presence of MK-801
Experimental: (§4) FIG. 6A, FIG. 6B, FIG. 6C, FIG. 6D, and FIG. 6E depict graphs showing that 25-HC has an NMDAR-independent protecting effect on OGD-induced cell death. (FIG. 6A) Survival rate was compared between control, OGD (3 hour), OGD (3 hour)+MK-801, and OGD (3 hour) +MK-801+25-HC. […] 25-HC protected against the MK-801 insensitive OGD-induced cell death. (n=12 cultures for each group, one-way repeated measures ANOVA with Bonferroni's post hoc test, *p<0.05, ***p<0.001). […] (FIG. 6C) H2O2 (100 μM, 1 hour treatment) toxicity was used to test neuroprotection of 25-HC. 25-HC again yielded mild but reliable protection (N=10 cultures for each group, one-way repeated measures ANOVA with Bonferroni's post hoc test, *P<0.05). (FIG. 6D) and (FIG. 6E) Neither WT nor CYP46A1 knockout hippocampal neuron cultures from C571Bl/6 mice was sensitive to the mild NMDAR independent neuroprotective effect of 25-HC (N=7 cultures for each group; P>0.05).
(§5) To further test the NMDAR-independence neuroprotective effect, a model of oxidative damage: H2O2 induced toxicity was used.

[6] = test system: hippocampal neuron cultures from C571Bl/6 mice; assay: NMDAR-independent neuroprotection in WT and CYP46A1 knockout mouse hippocampal neuron cultures; assay type: cell-based
Experimental: as §4, §5
Cell culture. All animal care and experimental procedures were consistent with National Institutes of Health guidelines and were approved by the Washington University Animal Studies Committee. Studies involving animals are reported in accordance with the ARRIVE guidelines for reporting experiments involving animals (12, 13). […]

Question: Which results are given for `CC(C)[C@@H](O)CC[C@@H](C)[C@H]1CC[C@H]2[C@@H]3CC=C4C[C@@H](O)CC[C@]4(C)[C@H]3CC[C@]12C` [24S-HC, 24S-hydroxycholesterol]?
Answer: survival compared to OGD alone (rat hippocampal cultures; 24S-HC 0.5 μM): significantly poorer survival; OGD-induced cell death / survival rate (rat hippocampal cultures; 24S-HC 2 μM, exogenous application, WT rat hippocampal cultures 14 days in vitro): significantly poorer survival; also recorded: enhanced OGD-induced cell death; also recorded: significantly lower survival rate; effect on survival when administered alone (no OGD) (rat hippocampal cultures; 24S-HC alone): Consistent effects of 24S-HC were not observed; concentration dependence of OGD-induced cell death (rat hippocampal cultures; 24S-HC over a range of 50 nM to 2 μM, rat cultures): depended on 24S-HC concentration; NMDA toxicity with 24S-HC co-treatment (hippocampal cultures [1]; 8 μM NMDA): exacerbated NMDA toxicity; exogenous concentration needed to potentiate NMDAR function (NMDARs [2]): ~50 nM; concentration at which effects on NMDAR function saturate (NMDARs [3]): ~10 µM

Question: With `C[C@H](CCCC(C)(C)O)[C@H]1CC[C@H]2[C@@H]3CC=C4C[C@@H](O)CC[C@]4(C)[C@H]3CC[C@]12C` [25-HC, 5-cholestene-3β,25-diol] as the compound, how does the “OGD-induced cell death without exogenous 24S-HC” value (rat hippocampal cultures; 10 μM 25-HC incubation during the OGD insult) read?
Answer: alleviated

Question: And the “SGE-201-exacerbated OGD injury” value (rat hippocampal cultures; 10 μM 25-HC with 1 μM SGE-201)?
Answer: alleviated

Question: And the “survival rates, treatment before versus after OGD insult” value (rat hippocampal cultures; 25-HC before or after OGD insult)?
Answer: comparable survival rates

Question: And the “OGD-induced cell death relative to 24S-HC and OGD alone” value (rat hippocampal cultures; co-treatment 10 μM 25-HC and 2 μM 24S-HC)?
Answer: significantly alleviated OGD-induced cell death

Question: And the “24S-HC exacerbation of NMDA toxicity” value (hippocampal cultures [1]; 10 μM 25-HC, 8 μM NMDA + 24S-HC)?
Answer: significantly alleviated

Question: What about the “neuroprotection against NMDA-induced cell death” value (hippocampal cultures [1]; 10 μM 25-HC, NMDA 8 μM or 20 μM) of the same compound?
Answer: no neuroprotection

Question: What about the “neuroprotection against MK-801 insensitive OGD-induced cell death” value (hippocampal cultures [4]; 10 μM 25-HC in the presence of 20 μM MK-801, OGD 3 hours) of the same compound?
Answer: mild but significant neuroprotection

Question: And the “neuroprotection against H2O2 induced toxicity” value (hippocampal cultures [5])?
Answer: mild but consistent neuroprotective effect

Question: What about the NMDAR-independent neuroprotective effect ([6]; CYP46A1 knockout mouse cultures) of the same compound?
Answer: did not extend

Question: What about the NMDAR-independent neuroprotective effect ([6]; WT mouse cultures) of the same compound?
Answer: did not extend

Question: And the “antagonism of 24S-HC effects on NMDARs” value (NMDARs [3])?
Answer: non-competitively antagonizes

Question: For `N[C@@H](CCCP(=O)(O)O)C(=O)O` [APV], which “OGD-induced cell death in AAV-CYP-GFP and AAV-GFP-infected neuron cultures” value (rat hippocampal cultures; APV) is on record?
Answer: prevented OGD-induced cell death

Question: What about the “neuroprotection against OGD” value (rat hippocampal cultures; administered before and during OGD) of the same compound?
Answer: highly neuroprotective

Question: What about the “neuroprotection against OGD” value (rat hippocampal cultures; administered during the latent period following OGD insult) of the same compound?
Answer: much less effective

Question: And the “OGD-induced cell death exacerbated by 24S-HC, effect of NMDAR antagonist” value (rat hippocampal cultures)?
Answer: rescued

Question: With `C[C@]12N[C@H](Cc3ccccc31)c1ccccc12` [MK-801] as the compound, how does the “OGD-induced cell death exacerbated by 24S-HC, effect of NMDAR antagonist” value (rat hippocampal cultures) read?
Answer: prevented

Question: And the “cell death after OGD 3 hours” value (hippocampal cultures [4]; 20 μM MK-801)?
Answer: partially rescued

Question: And the normalized survival (hippocampal cultures [4]; OGD 3 hours + 20 μM MK-801)?
Answer: 0.66±0.03

Question: For `CN[C@H](CC(=O)O)C(=O)O` [NMDA], which cell survival (hippocampal cultures [1]; NMDA at 8 μM and 20 μM) is on record?
Answer: significantly reduced cell survival

Question: What does the source list for `C[C@H](CCC(C)(C)O)[C@H]1CC[C@H]2[C@@H]3CC=C4C[C@@H](O)CC[C@]4(C)[C@H]3CC[C@]12C` [SGE-201]?
Answer: OGD injury (rat hippocampal cultures; 1 μM SGE-201): exacerbated OGD injury; exacerbation of OGD toxicity (hippocampal cultures [4]; 1 μM SGE-201 in the presence of 20 μM MK-801): failed to exacerbate OGD toxicity; normalized survival (hippocampal cultures [4]; OGD 3 hours + 20 μM MK-801 + 1 μM SGE-201): 0.64±0.04
